According to US8569297B2, “1-benzyl-3-hydroxymethylindazole derivatives and use thereof in the treatment of diseases based on the expression of MCP-1 and CX3CR1” (Aziende Chimiche Riunite Angelini Francesco A.C.R.A.F. …, priority 2008, dated 2013):

What was measured:
[1] = tested on: MCP-1; test: Analysis of the gene expression of MCP-1 in a human monocyte line (real-time RT-PCR); format: cell-based; details: 150 μM (maximum soluble concentration), 1 hour pre-incubation; MonoMac6 cells stimulated with LPS 100 ng/ml for 4 hours
Procedure: The capacity of compound 1 to inhibit the expression of MCP-1 by lipopolysaccharide (LPS)-stimulated MonoMac6 cells was evaluated. The cells were placed in 96-well plates at a concentration of 50 000 cells/well. The compound was tested at the maximum soluble concentration given in Table 1 (in the range 30-300 μM) and incubated for 1 hour. The cells were then stimulated with LPS (100 ng/ml) for 4 hours.
(§1) The total RNA was extracted from the cell pellet using the RNeasy mini kit (Qiagen), reverse-transcribed with the TaqMan Reverse transcription reagents synthesis kit (Applied Biosystems) and the cDNA obtained was used for the real-time PCR reaction. The amplification was obtained in 96-well plates using the ABI Prism 7000 sequence detection system (Applied Biosystems), by applying the following temperature profile: 50° C. for 2 minutes, 95° C. for 10 minutes and 45 cycles at 95° C. for 15 seconds and 60° C. for 1 minute. For the amplification, a set of primers and probe specific for human MCP-1 was used (Applied Biosystems, RefSeq NM_002982.3). […] Once the reaction had taken place, the fluorescence data were analysed using the ABI Prism 7000 SDS software, by calculating the threshold cycle (Ct) for each sample and subsequently performing a relative quantification via the ΔΔCt method.
The results obtained, expressed as a percentage of inhibition, are collated in Table 1 below.

[2] = tested on: MCP-1; test: Measurement of the production of MCP-1 in a human monocyte line (ELISA); format: cell-based; details: MONO-MAC-6, 150 μM (maximum soluble concentration), 1 hour pre-incubation, MonoMac6 cells stimulated with LPS 100 ng/ml for 20 hours, supernatant ELISA, read-out: % inhibition of LPS-induced MCP-1 production (produced protein)
Procedure: The capacity of the compounds 1 and 2 to inhibit the expression of the protein MCP-1 by lipopolysaccharide (LPS)-stimulated MonoMac6 cells was evaluated. The cells were placed in 96-well plates at a concentration of 50 000 cells/well. The compounds were tested at the maximum soluble concentration given in Table 2 (in the range 30-300 μM) and incubated for 1 hour. The cells were then stimulated with LPS (100 ng/ml) for 20 hours.
The amount of MCP-1 produced was measured in the supernatants, suitably diluted with buffer, by means of an immunoenzymatic test (ELISA) using a commercial kit (ELISA MCP-1/JE, R&D Systems).
The results obtained, expressed as a percentage of inhibition, are collated in Table 2 below.

[3] = tested on: CX3CR1; test: Analysis of the gene expression of CX3CR1 in a human monocyte line (real-time RT-PCR); format: cell-based; details: 150 μM (maximum soluble concentration), 1 hour pre-incubation; MonoMac6 cells stimulated with LPS 100 ng/ml for 20 hours
Procedure: The capacity of compound 1 to inhibit the expression of CX3CR1 by lipopolysaccharide (LPS)-stimulated MonoMac6 cells was evaluated. The cells were placed in 96-well plates at a concentration of 50 000 cells/well. The compound was tested at the maximum soluble concentration given in Table 3 (in the range 30-300 μM) and incubated for 1 hour. The cells were then stimulated with LPS (100 ng/ml) for 20 hours.
as §1, with “CX3CR1” for “MCP-1”, “NM_001337.3).” for “NM_002982.3).”
The results obtained, expressed as a percentage of inhibition, are collated in Table 3 below.

SMILES	% inhibition of LPS-induced expression of MCP-1 (specific mRNA) [1] [%]	inhibition at 150 µM [2] [%]	% inhibition of LPS-induced expression of CX3CR1 (specific mRNA) [3] [%]	melting point
NCC(O)c1nn(Cc2ccccc2)c2ccccc12 (stereo not shown) [Compound 1, 2-amino-1-(1-benzyl-1H-indazol-3-yl)ethanol]	64	73	96	126 °C (dec.)
CCNCC(O)c1nn(Cc2ccccc2)c2ccccc12 (stereo not shown) [Compound 2, 1-(1-benzyl-1H-indazol-3-yl)-2-(ethylamino)ethanol]	53	67	85	–
